Experimental data: patent US8410168B2, “Methods and compositions for treating ophthalmic conditions with retinyl derivatives” (Acucela, Inc., priority 2004, dated 2013)
“Also recorded” adds a separate entry of the source.

Columns and labels:
[1] = HPR concentration in the RPE of treated mice; assay type: in vivo
Description: (§1) We examined the effects on HPR on enzymes or proteins of the visual cycle using in vitro biochemical assays. Specifically, the utilization of exogenous all-trans retinol by membranes prepared from bovine RPE was studied. […] Steady-state levels of HPR in the RPE (determined from mice which have been given 20 mg/kg HPR, i.p., daily for 28 days) range from 5-10 μM. With this in mind, we examined the effects of 10 μM HPR on production of all-trans retinyl esters and 11-cis retinol in assays similar to those described above. […] In the presence of endogenous retinoids, utilization of exogenous all-trans retinol is extremely low and 11-cis retinol is produced solely from the endogenous all-trans retinyl esters. […] Thus, the retinoic acids appear to affect at least two targets in the visual cycle. We have determined that HPR-induced reduction of 11-cis retinol biosynthesis occurs via LRAT inhibition and reduction in all-trans retinyl ester levels. In this situation, the isomerase enzyme is starved for substrate and 11-cis retinol production declines.
(§2) We performed an analysis of the dissociation constant (KD) for 11cRAL and HPR binding to apo-CRALBP (see FIG. 15). […] This calculation is based upon the ligand concentration necessary to fully quench the protein fluorescence. The data reveal that both 11cRAL and HPR quench apo-CRALBP fluorescence maximally at ˜1.5 μM. Thus, although apo-CRALBP is described as an 11 cis-specific retinoid binding protein, it appears to bind HPR as well.
A second target for HPR in the visual cycle was identified using in vitro biochemical assays. Lecithin retinol acyl transferase (LRAT) catalyzes the conversion of retinol into retinyl esters. LRAT is critical not only for retinol-retinyl ester homeostasis but also for generation of substrate for visual chromophore biosynthesis. The data shown in panel A of FIG. 16 illustrate the inhibitory effect of HPR on the rate of retinyl ester synthesis. […] In a separate study, we have determined that HPR concentrations in the RPE approach 10 μM with a 10 mg/kg dose of HPR.

abcr null mutant mice = assay: Lipofuscin autofluorescence in RPE and light microscopy of retina; assay type: in vivo, mouse; settings: 28 days of HPR
Description: Treatment conditions are as described above.
(§3) HPR (10 mg/kg in DMSO) was administered to ABCA4−/− mice daily for a period of 28 days. Control ABCA4−/− mice received only DMSO for the same period. […] Importantly, the observed reductions in lipofuscin autofluorescence persist long after cessation of HPR therapy. HPR (10 mg/kg), or DMSO, administration was discontinued following 28 days of treatment and re-evaluated A2E and precursor levels after 2 weeks and after 4 weeks.

mice = assay: Retinoid composition, chromophore regeneration and electrophysiology in HPR-treated mice; assay type: in vivo; settings: 10 mg/kg daily for 28 days
Source text: Panels D-F of FIG. 17 are electrophysiological measurements of rod function (panel D), rod and cone function (panel E) and recovery from photobleaching (panel F).

CRALBP [2] = molecular target: T1, CRALBP (Homo sapiens, UniProt P12271); assay: Size exclusion chromatography study of binding to CRALBP; settings: 4 μM apo-CRALBP, 8 μM ligand
T1 construct: made in house
T1 sequence (P12271 whole entry, species assumed): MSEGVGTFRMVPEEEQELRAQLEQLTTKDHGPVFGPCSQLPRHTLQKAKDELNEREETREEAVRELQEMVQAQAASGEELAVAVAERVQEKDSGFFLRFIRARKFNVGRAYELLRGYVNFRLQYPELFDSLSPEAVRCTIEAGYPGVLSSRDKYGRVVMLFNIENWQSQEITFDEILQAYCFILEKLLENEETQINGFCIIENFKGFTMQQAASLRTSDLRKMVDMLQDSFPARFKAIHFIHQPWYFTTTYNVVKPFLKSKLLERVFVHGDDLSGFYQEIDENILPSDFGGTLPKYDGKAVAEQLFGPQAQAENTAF
Description: Apo-CRALBP at 4 μM was incubated with 8 μM of 11cRAL, atRAL or HPR in PBS at room temperature for 1 hour. In control experiment, equivalent volume of DMSO was added to the CRALBP solution. 50 μl of each sample mixture was analyzed by BioRad Bio-Sil SEC125 Gel Filtration Column (300×7.8 mm).

ABCA4−/− mice = assay: HPR drug holiday after 28 days of treatment; assay type: in vivo, mouse
Description: as §3
We examined eyecup extracts by HPLC and employed detection by absorbance and fluorimetry. Identity of the indicated peaks was confirmed by on-line spectral analysis and by co-elution with authentic standards. […] Further, the A2E and precursor (A2PE-H2 and A2PE) levels after a […] or 28-day drug holiday remained at or near the levels immediately following 28 days of treatment (i.e., ca. 50% reduction relative to control), although after the 28-day drug holiday, the amount of A2E and precursor (A2PE-H2 and A2PE) had increased by a few percentage points relative to the 12-day drug holiday levels. […] It is clear that peak fluorescence tracks with the abundance of A2E, A2PE and A2PE-H2.
This effect cannot be attributed to long-term reductions in serum retinol as serum retinol had returned to baseline 48 hours following the last HPR dose. […] Furthermore, HPR reduces serum retinol levels, which leads to a reduction in the level of retinol in the eyes of treated animals. Once the level of retinol has been reduced in the eye, there is a time lag in the subsequent increase in retinol levels in the eye. Alone or in combination, the production of A2E, A2PE and A2PE-H2 in the eye remains low despite the absence of HPR in the serum or the eye.

CRALBP [3] = molecular target: T1, CRALBP; assay: Fluorescence quenching study of binding to CRALBP
Description: Apo-CRALBP at 0.5 μM was incubated with 1 μM of 11-cis Retinal (11cRAL), all-trans retinal (atRAL) or N-4-hydroxyphenyl retinamide (HPR) in PBS at room temperature for 1 hour. As a control, same volume of DMSO was added to the Apo-CRABLP solution. The emission spectra were measured between 290 nm to 500 nm with excitation wavelength at 280 nm and 2 nm bandpass (See FIG. 7).
Quenching of CRALBP protein fluorescence with 11-cis retinal (11cRAL). The fluorescence emission of recombinant apo-CRALBP (0.5 μM) was measured using 280 nm excitation (“no 11cRAL”).
Quenching of CRALBP protein fluorescence with HPR. The data shown were obtained using an experimental design identical to that described above. The fluorescence emission of recombinant apo-CRALBP was measured using 280 nm excitation (“no HPR”).
as §2

[4] = system: 11-cis retinol biosynthesis; assay: In vitro 11-cis retinol production by bovine RPE membranes; assay type: biochemical; settings: 10 μM HPR, p<0.05
Description: as §1

SMILES: CC1=C(/C=C/C(C)=C/C=C/C(C)=C/C(=O)Nc2ccc(O)cc2)C(C)(C)CCC1 [HPR, N-(4-hydroxyphenyl)retinamide]
- HPR concentrations in the RPE ([1]; 10 mg/kg dose of HPR): ~10 µM
- concentration at 28 days ([1]; BL6/129, mouse, RPE (retinal pigment epithelium), intraperitoneal, 20 mg/kg HPR, i.p., daily for 28 days, read-out: steady-state levels of HPR in the RPE): 5 to 10 µM
- concentrations of HPR in the RPE during the animal trials ([1]; even at the lowest dose of 2.5 mg/kg): exceed 30 nM
- lipofuscin autofluorescence in the RPE (abcr null mutant mice): significantly reduces; also recorded: comparable to levels observed in untreated wild type mice
- retinal morphology by light microscopy (abcr null mutant mice): No aberrant morphology or compromise of the integrity in retinal cytostructure was observed; also recorded: no alteration of retina cytostructure or morphology
- regeneration of visual chromophore (mice): does not affect
- ligand bound to CRALBP (monomer elution peak absorbance) (CRALBP [2]): only small amount of HPR is bound to CRALBP
- reduction of A2E and precursor (A2PE-H2 and A2PE) levels relative to control (ABCA4−/− mice; 10 mg/kg 28 days, then 12- or 28-day drug holiday): ca. 50%
- detection in the eyes after drug holiday (ABCA4−/− mice; 28-day drug holiday): unable to detect
- time for serum retinol to return to baseline after the last HPR dose (ABCA4−/− mice; mouse, in vivo): 48 h
- concentration of maximal quenching of apo-CRALBP fluorescence (CRALBP [3]): ~1.5 µM
- quenching of CRALBP fluorescence emission (CRALBP [3]; 0.5 μM apo-CRALBP, 1 μM ligand, 1 hour, vs DMSO): lowest
- concentration dependence of CRALBP protein fluorescence quenching (CRALBP [3]; 0.5 μM recombinant apo-CRALBP, 280 nm excitation): concentration dependent manner
- Kd (CRALBP [3]; transformation of fluorescence quenching data, read-out: dissociation constant (KD) for binding to apo-CRALBP): ~30 nM
- effect on 11-cis retinol biosynthesis [4]: statistically significant inhibition
